Tests used:
[1] = system: VEGFR receptors (VEGFR1 and VEGFR2), p-VEGFR2, VEGF; assay: Western blot of the VEGF pathway in undifferentiated (pathological) ARPE-19 cells; type: cell-based, human; details: undifferentiated ARPE-19, 24 h, 20 μM resveratrol (R20) or equivalent (A20)
Description: Cells studied: culture of undifferentiated ARPE-19 (ATCC® CRL-2302™) (human retinal pigment epithelium) cells.
The cells were maintained at 37° C., and in the presence of 5% CO2 in the medium DMEM/F12 (GIBCO; 31331), completed with 10% FBS (Lonza) and 15 mM HEPES (pH 7.4; GIBCO).
b) Incubation Between the Compositions (Formula A or B) and the Cells: 1, 5, 10 or 20 μM.
The 10 μM equivalent from formula B also corresponding to 0.115 mg/mL of formula B in DMEM/F12+1% FBS w/o phenol red.
The day prior to treatment, the medium was eliminated and replaced by DMEM/F12 without phenol red (GIBCO; 21041), completed with 1% FBS (Lonza) and 15 mM HEPES (pH 7.4; GIBCO).
After 24 h of stimulation, the media were eliminated, the cells were washed with PBS 1× then scrubbed in PBS 1×. The cells were centrifuged and the remainder was resuspended in the RIPA buffer along with a cocktail of protease inhibitors (Roche) and phosphatase inhibitors. The cells were lysed in ice for 30 minutes, then centrifuged. The protein concentration was determined by means of a protein quantification kit (Lowry kit, biorad). […] The membranes were again washed 3 times in 0.1% PBS-T and the signal was detected by ECL (Tebu bio). The images were recorded with the ChemiDoc imaging system and analyzed with Quantity One Software (Biorad) software.
The β-actin was also quantified in order to relativize the levels of expression.

[2] = system: VEGFR receptors (VEGFR1 and VEGFR2), p-VEGFR2, VEGF; assay: Western blot of the VEGF pathway in differentiated (healthy) ARPE-19 cells; type: cell-based, human; details: differentiated ARPE-19, 24 h, 20 μM resveratrol (R20)
Description: The protocol used is the same as the one described in the example II-2, except for the cells studied: Cells studied: culture of differentiated ARPE-19 (human retinal pigment epithelium) cells. The undifferentiated cells are seeded in T75 flasks. The cells are maintained at 37° C., and in the presence of 5% CO2 in the medium DMEM/F12 (GIBCO; 31331), completed with 10% FBS (Lonza) and 15 mM HEPES (pH 7.4; GIBCO). When the cells reach confluence, the medium is replaced by DMEM/F12 (GIBCO; 31331), completed with 1% FBS (Lonza) and HEPES (15 mM pH 7.4; GIBCO). The media were changed 2 times per week for 8 weeks. Said cells can be equated with undamaged or healthy retinal cells.

VEGF [3] = details: in vitro, human retinal pigmentary epithelium cells (HRPE cells); cited from earlier work
VEGF [4] = details: wet form of AMD, repeated intravitreal injections; cited from earlier work

Oc1ccc(/C=C/c2cc(O)cc(O)c2)cc1 [resveratrol]
expression of VEGF receptors, resveratrol alone versus composition [1]: makes it possible to reduce the expression of VEGF receptors
effect on VEGF receptors of healthy cells, resveratrol alone [2]: has no effect on healthy cells
overexpression of VEGF induced by cytokines (VEGF [3]): inhibiting in vitro the overexpression of VEGF

pegaptanib
effect of the treatment (VEGF [4]): little effect

B1: ranibizumab: VEGF inhibitor used since 2007 for the wet form of AMD (antibody, chains of the INN, looked up, V domains shown)
VH: EVQLVESGGGLVQPGGSLRLSCAASGYDFTHYGMNWVRQAPGKGLEWVGWINTYTGEPTYAADFKRRFTFSLDTSKSTAYLQMNSLRAEDTAVYYCAKYPYYYGTSHWYFDVWGQGTLVTVSS
VL: DIQLTQSPSSLSASVGDRVTITCSASQDISNYLNWYQQKPGKAPKVLIYFTSSLHSGVPSRFSGSGSGTDFTLTISSLQPEDFATYYCQQYSTVPWTFGQGTKVEIK
modifications: Fab
unresponsive or no longer responsive to the treatment (VEGF [4]): about 30%
